Experimental data from the NIST ThermoML archive (doi:10.1007/s10765-009-0566-6).
Numbers after ± are expanded uncertainties.

Assays:
[1] = cn = amount concentration of the nth substance listed, in mol/dm3; conditions: 101 kPa, Liquid, Direct current cell with electrodes
[2] = refractive index (Na D-line) (dimensionless); mn = molality of the nth substance listed, in mol/kg; conditions: 101 kPa, Liquid, Standard Abbe refractometry

CCCCCn1cc[n+](C)c1.[Cl-] [1-methyl-3-pentylimidazolium chloride] + O
Conditions	molar conductivity [S·m2/mol]	refractive index
[1], 298.15 K, c1 = 0.000693	0.00871 ± 0.00017	–
[1], 298.15 K, c1 = 0.001453	0.00866 ± 0.00017	–
[1], 298.15 K, c1 = 0.002097	0.00863 ± 0.00017	–
[1], 298.15 K, c1 = 0.002732	0.00862 ± 0.00017	–
[1], 298.15 K, c1 = 0.004637	0.0086 ± 0.00017	–
[1], 298.15 K, c1 = 0.006272	0.00858 ± 0.00017	–
[1], 298.15 K, c1 = 0.007754	0.00852 ± 0.00017	–
[1], 298.15 K, c1 = 0.01023	0.00841 ± 0.00017	–
[1], 298.15 K, c1 = 0.01283	0.00832 ± 0.00017	–
[1], 298.15 K, c1 = 0.01775	0.00817 ± 0.00016	–
[1], 298.15 K, c1 = 0.02186	0.00804 ± 0.00016	–
[1], 298.15 K, c1 = 0.02704	0.00793 ± 0.00016	–
[1], 298.15 K, c1 = 0.03205	0.00783 ± 0.00016	–
[1], 298.15 K, c1 = 0.0368	0.0078 ± 0.00016	–
[1], 298.15 K, c1 = 0.04132	0.00772 ± 0.00015	–
[1], 298.15 K, c1 = 0.04635	0.00763 ± 0.00015	–
[1], 298.15 K, c1 = 0.05182	0.00752 ± 0.00015	–
[1], 308.15 K, c1 = 0.000752	0.00993 ± 0.0002	–
[1], 308.15 K, c1 = 0.001643	0.00975 ± 0.00019	–
[1], 308.15 K, c1 = 0.002686	0.00964 ± 0.00019	–
[1], 308.15 K, c1 = 0.00347	0.00956 ± 0.00019	–
[1], 308.15 K, c1 = 0.004191	0.00959 ± 0.00019	–
[1], 308.15 K, c1 = 0.005081	0.00953 ± 0.00019	–
[1], 308.15 K, c1 = 0.006215	0.00945 ± 0.00019	–
[1], 308.15 K, c1 = 0.007646	0.00937 ± 0.00019	–
[1], 308.15 K, c1 = 0.009172	0.00927 ± 0.00018	–
[1], 308.15 K, c1 = 0.01102	0.00917 ± 0.00018	–
[1], 308.15 K, c1 = 0.01269	0.00912 ± 0.00018	–
[1], 308.15 K, c1 = 0.01447	0.00906 ± 0.00018	–
[1], 308.15 K, c1 = 0.01625	0.00902 ± 0.00018	–
[1], 308.15 K, c1 = 0.01799	0.00895 ± 0.00018	–
[1], 308.15 K, c1 = 0.01986	0.00889 ± 0.00018	–
[1], 308.15 K, c1 = 0.02253	0.00881 ± 0.00018	–
[1], 308.15 K, c1 = 0.02549	0.00873 ± 0.00017	–
[1], 308.15 K, c1 = 0.02884	0.00863 ± 0.00017	–
[1], 308.15 K, c1 = 0.03245	0.00856 ± 0.00017	–
[1], 308.15 K, c1 = 0.0363	0.00846 ± 0.00017	–
[1], 308.15 K, c1 = 0.04073	0.00837 ± 0.00017	–
[1], 308.15 K, c1 = 0.04603	0.0082 ± 0.00016	–
[1], 308.15 K, c1 = 0.04936	0.00814 ± 0.00016	–
[1], 318.15 K, c1 = 0.000273	0.0115 ± 0.00023	–
[1], 318.15 K, c1 = 0.000592	0.0114 ± 0.00023	–
[1], 318.15 K, c1 = 0.001207	0.0112 ± 0.00022	–
[1], 318.15 K, c1 = 0.002002	0.0111 ± 0.00022	–
[1], 318.15 K, c1 = 0.002757	0.011 ± 0.00022	–
[1], 318.15 K, c1 = 0.003483	0.0108 ± 0.00022	–
[1], 318.15 K, c1 = 0.004458	0.0107 ± 0.00021	–
[1], 318.15 K, c1 = 0.005601	0.0106 ± 0.00021	–
[1], 318.15 K, c1 = 0.007348	0.0105 ± 0.00021	–
[1], 318.15 K, c1 = 0.008904	0.0104 ± 0.00021	–
[1], 318.15 K, c1 = 0.01052	0.0103 ± 0.00021	–
[1], 318.15 K, c1 = 0.0124	0.0102 ± 0.0002	–
[1], 318.15 K, c1 = 0.01478	0.0101 ± 0.0002	–
[1], 318.15 K, c1 = 0.01661	0.01 ± 0.0002	–
[1], 318.15 K, c1 = 0.0196	0.00989 ± 0.0002	–
[1], 318.15 K, c1 = 0.02241	0.00978 ± 0.0002	–
[1], 318.15 K, c1 = 0.02545	0.00966 ± 0.00019	–
[1], 318.15 K, c1 = 0.02897	0.00953 ± 0.00019	–
[1], 318.15 K, c1 = 0.03318	0.00939 ± 0.00019	–
[1], 318.15 K, c1 = 0.03779	0.00924 ± 0.00018	–
[1], 328.15 K, c1 = 0.000588	0.0119 ± 0.00024	–
[1], 328.15 K, c1 = 0.001076	0.0118 ± 0.00023	–
[1], 328.15 K, c1 = 0.001612	0.0117 ± 0.00023	–
[1], 328.15 K, c1 = 0.002109	0.0116 ± 0.00023	–
[1], 328.15 K, c1 = 0.002949	0.0116 ± 0.00023	–
[1], 328.15 K, c1 = 0.003721	0.0116 ± 0.00023	–
[1], 328.15 K, c1 = 0.004608	0.0115 ± 0.00023	–
[1], 328.15 K, c1 = 0.005897	0.0113 ± 0.00023	–
[1], 328.15 K, c1 = 0.007087	0.0111 ± 0.00022	–
[1], 328.15 K, c1 = 0.008632	0.011 ± 0.00022	–
[1], 328.15 K, c1 = 0.01034	0.0108 ± 0.00022	–
[1], 328.15 K, c1 = 0.01229	0.0106 ± 0.00021	–
[1], 328.15 K, c1 = 0.01539	0.0105 ± 0.00021	–
[1], 328.15 K, c1 = 0.01788	0.0104 ± 0.00021	–
[1], 328.15 K, c1 = 0.02011	0.0103 ± 0.00021	–
[1], 328.15 K, c1 = 0.02273	0.0101 ± 0.0002	–
[2], 298.15 K, m1 = 0.014	–	1.3331 ± 0.0011
[2], 298.15 K, m1 = 0.0263	–	1.3334 ± 0.0011
[2], 298.15 K, m1 = 0.0391	–	1.3338 ± 0.0011
[2], 298.15 K, m1 = 0.0518	–	1.3342 ± 0.0011
[2], 298.15 K, m1 = 0.0634	–	1.3344 ± 0.0011
[2], 298.15 K, m1 = 0.084	–	1.3351 ± 0.0011
[2], 298.15 K, m1 = 0.1007	–	1.3358 ± 0.0011
[2], 298.15 K, m1 = 0.1369	–	1.3367 ± 0.0011
[2], 298.15 K, m1 = 0.1784	–	1.3379 ± 0.001
[2], 298.15 K, m1 = 0.2198	–	1.3392 ± 0.001
[2], 298.15 K, m1 = 0.2765	–	1.3408 ± 0.001
[2], 298.15 K, m1 = 0.3517	–	1.343 ± 0.001
[2], 298.15 K, m1 = 0.4043	–	1.3443 ± 0.001
[2], 298.15 K, m1 = 0.5014	–	1.347 ± 0.001
[2], 298.15 K, m1 = 0.5758	–	1.3489 ± 0.001
[2], 298.15 K, m1 = 0.8464	–	1.3558 ± 0.001
[2], 298.15 K, m1 = 1.002	–	1.3596 ± 0.001
[2], 298.15 K, m1 = 1.376	–	1.3679 ± 0.001
[2], 298.15 K, m1 = 1.797	–	1.3764 ± 0.0009
[2], 308.15 K, m1 = 0.014	–	1.3318 ± 0.0011
[2], 308.15 K, m1 = 0.0263	–	1.3321 ± 0.0011
[2], 308.15 K, m1 = 0.0391	–	1.3324 ± 0.0011
[2], 308.15 K, m1 = 0.0518	–	1.3328 ± 0.0011
[2], 308.15 K, m1 = 0.0634	–	1.3331 ± 0.0011
[2], 308.15 K, m1 = 0.084	–	1.3339 ± 0.0011
[2], 308.15 K, m1 = 0.1007	–	1.3344 ± 0.0011
[2], 308.15 K, m1 = 0.1369	–	1.3357 ± 0.0011
[2], 308.15 K, m1 = 0.1784	–	1.3367 ± 0.0011
[2], 308.15 K, m1 = 0.2198	–	1.3378 ± 0.0011
[2], 308.15 K, m1 = 0.2765	–	1.3397 ± 0.001
[2], 308.15 K, m1 = 0.3517	–	1.3416 ± 0.001
[2], 308.15 K, m1 = 0.4043	–	1.343 ± 0.001
[2], 308.15 K, m1 = 0.5014	–	1.3457 ± 0.001
[2], 308.15 K, m1 = 0.5758	–	1.3475 ± 0.001
[2], 308.15 K, m1 = 0.8464	–	1.3547 ± 0.001
[2], 308.15 K, m1 = 1.002	–	1.3579 ± 0.001
[2], 308.15 K, m1 = 1.376	–	1.3658 ± 0.001
[2], 308.15 K, m1 = 1.797	–	1.3745 ± 0.0009
[2], 318.15 K, m1 = 0.014	–	1.3302 ± 0.0011
[2], 318.15 K, m1 = 0.0263	–	1.3305 ± 0.0011
[2], 318.15 K, m1 = 0.0391	–	1.3308 ± 0.0011
[2], 318.15 K, m1 = 0.0518	–	1.3313 ± 0.0011
[2], 318.15 K, m1 = 0.0634	–	1.3316 ± 0.0011
[2], 318.15 K, m1 = 0.084	–	1.3322 ± 0.0011
[2], 318.15 K, m1 = 0.1007	–	1.3327 ± 0.0011
[2], 318.15 K, m1 = 0.1369	–	1.3336 ± 0.0011
[2], 318.15 K, m1 = 0.1784	–	1.3349 ± 0.0011
[2], 318.15 K, m1 = 0.2198	–	1.3359 ± 0.0011
[2], 318.15 K, m1 = 0.2765	–	1.3377 ± 0.0011
[2], 318.15 K, m1 = 0.3517	–	1.3397 ± 0.001
[2], 318.15 K, m1 = 0.4043	–	1.3411 ± 0.001
[2], 318.15 K, m1 = 0.5014	–	1.3437 ± 0.001
[2], 318.15 K, m1 = 0.5758	–	1.3457 ± 0.001
[2], 318.15 K, m1 = 0.8464	–	1.3523 ± 0.001
[2], 318.15 K, m1 = 1.002	–	1.3557 ± 0.001
[2], 318.15 K, m1 = 1.376	–	1.3639 ± 0.001
[2], 318.15 K, m1 = 1.797	–	1.3721 ± 0.0009
[2], 328.15 K, m1 = 0.014	–	1.3282 ± 0.0011
[2], 328.15 K, m1 = 0.0263	–	1.3284 ± 0.0011
[2], 328.15 K, m1 = 0.0391	–	1.3288 ± 0.0011
[2], 328.15 K, m1 = 0.0518	–	1.3291 ± 0.0011
[2], 328.15 K, m1 = 0.0634	–	1.3294 ± 0.0011
[2], 328.15 K, m1 = 0.084	–	1.3305 ± 0.0011
[2], 328.15 K, m1 = 0.1007	–	1.3309 ± 0.0011
[2], 328.15 K, m1 = 0.1369	–	1.3316 ± 0.0011
[2], 328.15 K, m1 = 0.1784	–	1.3328 ± 0.0011
[2], 328.15 K, m1 = 0.2198	–	1.3339 ± 0.0011
[2], 328.15 K, m1 = 0.2765	–	1.3356 ± 0.0011
[2], 328.15 K, m1 = 0.3517	–	1.3376 ± 0.001
[2], 328.15 K, m1 = 0.4043	–	1.3389 ± 0.001
[2], 328.15 K, m1 = 0.5014	–	1.3419 ± 0.001
[2], 328.15 K, m1 = 0.5758	–	1.344 ± 0.001
[2], 328.15 K, m1 = 0.8464	–	1.3505 ± 0.001
[2], 328.15 K, m1 = 1.002	–	1.3537 ± 0.001
[2], 328.15 K, m1 = 1.376	–	1.3619 ± 0.001
[2], 328.15 K, m1 = 1.797	–	1.3697 ± 0.0009
